Results from paper PMC2774819 (Chemistry & biology, 2008).
Like-named read-outs stand apart in the source and are kept apart here.

Columns and labels:
[1] = target: MycCI cytochrome P450, C-terminal 6 x His tagged (Micromonospora griseorubida) (UniProt Q83WF5); assay: spectral ferredoxin titration
MycCI = target: T1, MycCI (Micromonospora griseorubida, UniProt Q83WF5); assay: spectral substrate binding assay
T1 sequence (Q83WF5 1-388): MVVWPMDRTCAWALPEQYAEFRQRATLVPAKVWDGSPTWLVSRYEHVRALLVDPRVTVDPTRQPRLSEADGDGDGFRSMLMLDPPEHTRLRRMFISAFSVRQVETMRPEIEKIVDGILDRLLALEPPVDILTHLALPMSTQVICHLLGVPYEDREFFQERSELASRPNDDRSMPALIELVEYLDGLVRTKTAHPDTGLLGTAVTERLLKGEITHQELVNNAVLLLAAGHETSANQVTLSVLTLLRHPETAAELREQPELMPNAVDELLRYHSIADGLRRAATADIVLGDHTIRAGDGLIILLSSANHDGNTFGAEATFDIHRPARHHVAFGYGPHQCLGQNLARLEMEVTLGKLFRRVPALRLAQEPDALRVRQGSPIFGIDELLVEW

MycG [2] = target: T2, MycG (Micromonospora griseorubida, UniProt Q59523); assay: spectral substrate binding assay
T2 sequence (Q59523 1-397): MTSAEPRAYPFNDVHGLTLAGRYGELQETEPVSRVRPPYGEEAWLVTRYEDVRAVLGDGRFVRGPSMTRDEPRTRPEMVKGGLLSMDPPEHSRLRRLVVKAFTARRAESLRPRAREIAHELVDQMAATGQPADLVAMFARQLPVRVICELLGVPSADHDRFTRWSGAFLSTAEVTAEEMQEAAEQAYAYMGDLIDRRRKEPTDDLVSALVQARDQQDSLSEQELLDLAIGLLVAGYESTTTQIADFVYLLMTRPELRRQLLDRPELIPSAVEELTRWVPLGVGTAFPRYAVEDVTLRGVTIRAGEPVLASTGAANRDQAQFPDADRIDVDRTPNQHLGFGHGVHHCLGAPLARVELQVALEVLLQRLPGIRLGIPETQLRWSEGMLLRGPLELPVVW

MycG [3] = target: T2, MycG; assay: spectral substrate binding assay; remark: listed apart in the source
[4] = target: T3, MycCI cytochrome P450, C-terminal 6 x His tagged (Micromonospora griseorubida, UniProt Q83WF5 1-388); assay: spectral ferredoxin titration
T3 sequence (looked up): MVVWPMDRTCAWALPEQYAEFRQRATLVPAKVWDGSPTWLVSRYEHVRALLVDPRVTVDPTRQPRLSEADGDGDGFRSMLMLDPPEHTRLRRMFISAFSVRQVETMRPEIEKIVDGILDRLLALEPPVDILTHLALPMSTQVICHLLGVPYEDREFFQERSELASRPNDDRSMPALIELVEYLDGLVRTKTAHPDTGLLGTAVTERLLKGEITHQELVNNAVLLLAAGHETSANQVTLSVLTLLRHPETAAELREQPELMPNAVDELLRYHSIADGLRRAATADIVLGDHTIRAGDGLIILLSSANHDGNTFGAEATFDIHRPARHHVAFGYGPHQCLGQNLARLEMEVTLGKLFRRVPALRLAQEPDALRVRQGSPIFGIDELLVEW

Molecule: spinach ferredoxin (from UniProt P00221 51-147) (natural protein)
- Kd [1]: 149 µM

Molecule: CC[C@H]1OC(=O)/C=C/[C@@H](C)[C@H](O[C@H]2O[C@@H](C)C[C@@H](N(C)C)[C@@H]2O)[C@H](C)C[C@@H](C)C(=O)/C=C\C=C\[C@H]1C [M-VIII, mycinamicin VIII]
- Kd (MycCI): 28.1 ± 3.2 µM

Molecule: CC[C@H]1OC(=O)/C=C/[C@H](C)[C@@H](O[C@@H]2O[C@H](C)C[C@H](N(C)C)[C@H]2O)[C@@H](C)C[C@@H](C)C(=O)/C=C/[C@H]2O[C@@H]2[C@]1(O)CO[C@@H]1O[C@H](C)[C@@H](O)[C@@H](OC)[C@H]1OC [M-II, mycinamicin II]
- Kd (MycG [2]): 71.5 ± 8.4 µM

Molecule: CC[C@H]1OC(=O)/C=C/[C@H](C)[C@@H](O[C@@H]2O[C@H](C)C[C@H](N(C)C)[C@H]2O)[C@@H](C)C[C@@H](C)C(=O)/C=C/C=C/[C@@H]1CO[C@@H]1O[C@H](C)[C@@H](O)[C@@H](OC)[C@H]1OC [M-IV, mycinamicin IV]
- Kd (MycG [2]): 0.7 ± 0.1 µM

Molecule: CC[C@H]1OC(=O)/C=C/[C@H](C)[C@@H](O[C@@H]2O[C@H](C)C[C@H](N(C)C)[C@H]2O)[C@@H](C)C[C@@H](C)C(=O)/C=C/C=C/[C@]1(O)CO[C@@H]1O[C@H](C)[C@@H](O)[C@@H](OC)[C@H]1OC [M-V, mycinamicin V]
- Kd (MycG [3]): 10.4 ± 0.2 µM

B1: N-terminal 6 x His-tagged ferredoxin MycCII (natural protein, Micromonospora griseorubida, UniProt Q83WF4 1-74, looked up)
chain: MRIVLDAERCVGAGQCEATAPELFTQGDDGLGLVRDRPVTPELLGPAREAVDRCPVRAIRIESSVRTGWARGAG
- Kd [4]: 7 ± 0.1 µM
